Laboratory results taken from US12268901B2, “Targeting cell tropism receptors to inhibit cytomegalovirus infection” (priority 2017, dated 2025).

How the values were obtained:
[1] = system: HCMV infection of HEL fibroblasts; test: Peptide blocking assay, infection of HEL fibroblasts (percent IE positive cells); type: cell-based, Human cytomegalovirus (HCMV); settings: peptide 1 100 μg/ml, MOI=2.0
Procedure: FIG. 9. […] TB40E-GFP encoding the viral PC or AD169 lacking PC were preincubated with peptide 1 (100 μg/ml) and then infected on ARPE19 epithelial cells or HEL fibroblasts (MOI=2.0). Cells were fixed, permeabilized, stained for DNA, immunostained for anti-immediate early protein (IE) and imaged. […] Values indicate the mean percentage of infected cells of n=3 experiments±SD. **p<0.01; ***p<0.001.
Live cell images: Phase and GFP signal images were captured on a Zeiss microscope (Zeiss AxioObserver Z1) at 10× magnification. Fixed cell images: cells were washed with PBS (Life Technologies) and fixed with 4% formalin in PBS (Sigma). DNA was stained with Hoechst 33342 dye (Life Technologies). The fixed cells were imaged using an Image Xpress Micro (IXM, Molecular Devices) at 4× magnification. Images were analyzed with MetaXpress imaging software (Molecular Devices) to determine the total cells per well and the percentage of infected cells (GFP positive) in each well. For IE immunostaining: fixed cells were permeabilized with 0.2% Triton X-100 (Sigma) in PBS. Blocking was performed with 1% BSA (Calbiochem, 2930) in PBS with 0.3M glycine (Sigma). Cells were then incubated in antibody targeting the major IE proteins (IE, EMD Millipore, MAB8131) diluted in 1% BSA in PBS. […]

[2] = system: Akt phosphorylation in ARPE19 cells; test: PI3/Akt signaling induced by virus binding (immunoblot phospho Akt ser473); type: cell-based; settings: Peptide 1 100 ug/ml preincubated with virus at 37° C. for 2 h, ARPE19, 30 minutes post infection
Procedure: FIGS. 8A-C. […] (A) Cells were serum starved at 37° C. for overnight and cells were pretreated with DMSO (control), LY294002 (50 uM) in serum-free medium prior to infection for two hours. Plated cells were cooled on ice for 30 mins. Cells were infected by purified TB40E-GFP virus (no serum) at MOI of 2.0 PFU per cell for 2 hours on ice. Cell plates were then shifted to 37° C. incubator (time 0). Cells were harvested at 0, 5, 10 mins post infection. Protein extracts were subjected to immunoblotting with anti-phospho Akt (ser473), Akt or anti-β-actin (loading control). (B) ARPE19 epithelial sgCon and sgOR14I1 knock out cells were serum starved at 37° C. for overnight. Plated cells were cooled on ice for 30 mins. Cells were infected by purified TB40E-GFP virus (no serum) at MOI of 2.0 PFU per cell for 2 hours on ice. Cell plates were then shifted to 37° C. incubator (time 0). Cell were harvested at 0, 5 mins post infection. (C) Peptide 1 (100 ug/ml) was preincubated with TB40E-GFP virus at 37° C. for 2 h and the mixture applied to ARPE19 cells. The phosphorylation of Akt and total Akt were detected 30 minutes post infection of TB40E-GFP.
Cells were serum starved at 37° C. for overnight and cells were pretreated with DMSO (DMSO-carrier control) or LY294002 (50 uM) in serum-free medium prior to infection for two hours. Cell plates were cooled on ice for 30 mins. […]

[3] = system: TB40E-GFP infection of ARPE19 cells; test: cAMP/PKA signaling pathway modulation, TB40E-GFP infection; type: cell-based, Human cytomegalovirus (HCMV); settings: H-89 20 μM, SQ22536 150 μM, FSK 20 μM, 2 h prior to infection, MOI=4.0, 48 hpi
Procedure: (§1) FIGS. 7A-C. HCMV receptor engagement and cAMP/PKA signaling. ARPE19 or OR14I1 knock down cells were pretreated with phosphokinase A (PKA) inhibitor H-89 (20 μM), adenylate cyclase antagonist, SQ22536 (150 μM), or adenylate cyclase activator, forskolin (FSK; 20 μM) for 2 h prior to TB40E-GFP infection (MOI=4.0). Cells were fixed at 48 hpi and images taken.
H-89, SQ22536 and Foskolin were purchased from Sigma-Aldrich Chemicals. Wild type ARPE19 or ARPE19 cells expressing the indicated shRNAs were treated with protein kinase A (PKA) inhibitor H-89 (20 μM), adenylate cyclase antagonist, SQ22536 (150 μM), or adenylate cyclase activator, forskolin (FSK; 20 μM) for 2 h prior to infection with TB40E-GFP (MOI=2.0). After 2 h, the medium was then replaced by the standard medium that also contained the noted small molecules. Images were taken at 2 dpi.
as §1, with “HCMV” for “FIGS. 7A-C. HCMV”, “signaling was also evaluated.” for “signaling.”, “(MOI=4.0).” for “(MOI=4.0). Cells were fixed at 48 hpi and images taken.”

## MDNLTKVTEFLLMEFSGIWELQVLHA (N-terminal fragment of OR14I1) [Peptide 1, synthetic peptide representing the N-terminus of OR14I1, position 1-26]
[1]
  PC+ HCMV infection of fibroblasts: modest effect
[2]
  Akt phosphorylation induced by HCMV infection: abolished
[3]
  infectivity of TB40E-GFP in ARPE19 epithelial cells: reduced infectivity significantly
